According to US20200121807A1, “Anti-Cancer Agents” (UEA ENTERPRISES LIMITED, priority 2016, published 2020):

Key:
[1] = target: T1, SK1 (Homo sapiens, UniProt Q9NYA1); experiment: SK1 activity by radiolabelling in PC-3 cells; assay type: cell-based; conditions: PC-3 cells treated for 48 h
T1 construct: endogenous in cells; host or cells: PC-3 cells (obtained from DSMZ)
Description: (D) PC-3 cells were treated for 48 h as indicated in figure and SK1 activity was measured by radiolabelling. Columns, points, percentage relative to the control. Data is expressed as Mean±SE (n=3). * p<0.05 versus control, ** p<0.05 versus free drug treatment (DTX+FTY). (E) Cytotoxicity of free drugs was assessed using the MTT assay (48 hr: dark shading; 72 hr: light shading; 96 hr: no shading); the final two columns showing sequential administration of docetaxel on day 1 (D1) followed by FTY720 on day 2 (D2), or administration of FTY720 on day 1 (D1) followed by docetaxel on day 2 (D2).
SK1 assay was performed using radiolabelling as previously described (Alshaker et al (2014), above, plus: Alshaker, H. et al. Sphingosine kinase 1 contributes to leptin-induced STAT3 phosphorylation through IL-6/gp130 transactivation in oestrogen receptor-negative breast cancer. Breast Cancer Res Treat 149, 59-67, doi:10.1007/s10549-014-3228-8 (2015); and Pchejetski, D. et al. The involvement of sphingosine kinase 1 in LPS-induced Toll-like receptor 4-mediated accumulation of HIF-1alpha protein, activation of ASK1 and production of the pro-inflammatory cytokine IL-6. Immunol Cell Biol 89, 268-274, doi:10.1038/icb.2010.91 (2011)), in conditions favouring SK1 activity and inhibiting SK2 activity.

[2] = tested on: MDA-MB-231 metastatic triple negative breast cancer cell; experiment: MDA-MB-231 breast tumour xenograft, free agents, tumour weight; assay type: in vivo, Balb/c nude mice; conditions: 5 mg/kg single agent, breast tumours
Description: (§1) Tumour weight at week 5. Columns, mean of three experiments performed in triplicate. Bars, SE. * p<0.05 versus control.
(§2) Mice and tumours were weighed.
(§3) Data are presented as the mean values of at least three independent experiments normalised to control±standard error of the mean (SE) calculated using OriginPro. Statistical significance between two groups was conducted by unpaired Student's t test. p value of <0.05 is considered statistically significant.

[3] = tested on: PC-3 metastatic prostate cancer cells; experiment: PC-3 prostate tumour xenograft, free agents, tumour weight; assay type: in vivo, Balb/c nude mice; conditions: 5 mg/kg single agent, prostate tumours
Description: as §1, §2, §3

[4] = in vivo; cited from earlier work
[5] = Toxicity in PC-3 tumour-bearing NSG mice (body weight, liver weight, WCC); assay type: in vivo; conditions: after 2 weeks of administration
Description: At Day 30 mice were sacrificed and liver weight measurements were performed. Liver weight was normalised to control group (healthy group no treatment). *: p<0.05 vs. control group (ANOVA). Data is expressed as Mean±SE (n=7).

T1 sequence (Q9NYA1 whole entry): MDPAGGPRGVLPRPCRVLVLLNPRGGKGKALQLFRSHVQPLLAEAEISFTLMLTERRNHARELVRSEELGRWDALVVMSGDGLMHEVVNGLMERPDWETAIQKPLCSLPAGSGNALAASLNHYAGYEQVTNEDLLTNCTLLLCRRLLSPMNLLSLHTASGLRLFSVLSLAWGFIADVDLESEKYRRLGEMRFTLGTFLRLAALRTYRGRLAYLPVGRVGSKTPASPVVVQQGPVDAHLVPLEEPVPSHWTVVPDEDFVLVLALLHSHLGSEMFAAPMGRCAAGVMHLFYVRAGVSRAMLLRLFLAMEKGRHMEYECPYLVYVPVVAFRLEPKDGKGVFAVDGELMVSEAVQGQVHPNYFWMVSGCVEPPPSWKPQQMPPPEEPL

Row | SK1 activity [1] | SMILES | tumour weight reduction, individual drug treatment [2] | tumour weight reduction, individual drug treatment [3] | circulation half-life [4] [h] | half-life [4] [h] | white cell count [5]
1 | insignificant increase | CC(=O)O[C@@]12CO[C@@H]1C[C@H](O)[C@@]1(C)C(=O)[C@H](O)C3=C(C)[C@@H](OC(=O)[C@H](O)[C@@H](NC(=O)OC(C)(C)C)c4ccccc4)C[C@@](O)([C@@H](OC(=O)c4ccccc4)[C@H]21)C3(C)C [docetaxel] | did not reduce the tumour weight significantly | did not reduce the tumour weight significantly | ~17 | – | –
2 | – | CCCCCCCCc1ccc(CCC(N)(CO)CO)cc1 [FTY720, fingolimod] | – | – | – | 140 to 220 | significantly reduced white cell count
3 | – | Oc1ccc(Nc2nc(-c3ccc(Cl)cc3)cs2)cc1 [SK1-II] | – | did not reduce the tumour weight significantly | – | – | –
